How the values were obtained:
healthy subjects [1] = assay: QTc time; type: in vivo, human; details: escitalopram pretreatment compared with placebo
Text: Exclusion criteria: Chronic or acute medical condition, including a history of seizures. Current or previous major psychiatric disorder (e.g. psychotic disorders, mania/hypomania, anxiety disorders, and substance abuse). Psychotic disorder in first-degree relatives, not including psychotic disorders secondary to an apparent medical reason, e.g. brain injury, dementia, or lesions of the brain. Illicit substance use (with the exception of cannabis) more than 10 times or any time within the previous two months. History of an angle closure glaucoma. Pregnant or nursing women. Participation in another clinical trial (currently or within the last 30 days). […] A corrected QT time (QTc), calculated by Bazett's formula, of over 450 milliseconds in males and over 470 milliseconds in females. Tobacco smoking (>10 cigarettes/day). Consumption of alcoholic drinks (>10 drinks/week). Bodyweight <45 kg.

healthy subjects [2] = assay: Autonomic measures (blood pressure, heart rate, body temperature, pupil size)
Procedure: Study design: A double-blind, cross-over design was used with two conditions. […] 2) Pretreatment with placebo for 14 days with the last administration on the study day and administration of 25 mg psilocybin 2 hours later. Treatment order was random and counterbalanced. Between the 14 days pretreatment and the study day, there were at least 2 days washout until the next pretreatment phase began.
Autonomic measures: Blood pressure, heart rate, and body temperature were recorded at baseline and repeatedly throughout the session. Blood pressure (systolic and diastolic) and heart rate were measured with an automatic oscillometric device. Body temperature was measured with an ear thermometer as previously described in detail (Hysek et al., 2010). Measures were taken before and at 0, 0.25, 0.5, 0.75, 1, 1.5, 2, 2.5, 3, 4, 5, 6 and 7 hours after psilocybin administration.
Data analysis: Peak (Emax and/or Emin) or peak change from baseline (ΔEmax) values were determined for repeated measures. The values were then analyzed using paired T-tests using Statistica 12 software (StatSoft, Tulsa, OK, USA). The criterion for significance was p<0.05.

2D6 = 2D6 (Homo sapiens, UniProt P10635); details: FDA, 2017; Swissmedic, 2020; cited from earlier work
2D6, sequence (P10635 whole entry): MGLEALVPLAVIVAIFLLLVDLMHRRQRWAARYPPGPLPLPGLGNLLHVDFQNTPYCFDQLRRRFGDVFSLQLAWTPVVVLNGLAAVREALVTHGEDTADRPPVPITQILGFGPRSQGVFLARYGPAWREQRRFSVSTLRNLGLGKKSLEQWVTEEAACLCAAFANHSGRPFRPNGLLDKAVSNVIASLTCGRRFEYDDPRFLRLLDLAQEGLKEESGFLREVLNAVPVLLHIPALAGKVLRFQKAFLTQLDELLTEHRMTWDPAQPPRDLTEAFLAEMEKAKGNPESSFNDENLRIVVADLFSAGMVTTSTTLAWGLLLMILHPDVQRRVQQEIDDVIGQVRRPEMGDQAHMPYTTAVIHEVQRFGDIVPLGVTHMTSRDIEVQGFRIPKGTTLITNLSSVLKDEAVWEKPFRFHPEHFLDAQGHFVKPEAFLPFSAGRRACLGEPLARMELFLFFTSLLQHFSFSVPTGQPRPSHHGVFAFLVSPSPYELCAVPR

healthy subjects [3] = assay: Mystical Experience Questionnaire (MEQ30, MEQ43); type: in vivo, human; details: escitalopram 14 days pretreatment vs placebo; P=0.001
Procedure: Treatment order was random and counterbalanced.
Mystical experiences were assessed using the German version (Liechti et al., 2017) of the 100-item States of Consciousness Questionnaire (SOCQ) (Griffiths et al., 2006) that includes the 43-item and newer 30-item MEQ (MEQ43 (Griffiths et al., 2006) and MEQ30 (Barrett et al., 2015)). The scale was be administered once at the end of each test session.

BDNF = assay: Plasma BDNF levels (ELISA); type: in vivo, human; details: escitalopram 14 days pretreatment vs placebo
Procedure: Psychedelics can induce neuroregeneration (Ly et al., 2018). Plasma BDNF levels are a possible biomarker for neurogenesis (Haile et al., 2014). Psychedelics increase BDNF (Holze et al., 2021; Hutten et al., 2020) and higher BDNF levels were associated with lower depression ratings after administration of psychedelics (de Almeida et al., 2019). Plasma BDNF levels were measured at baseline and 4 and 7 hours after drug administration using the Biosensis Mature BDNF Rapid ELISA Kit (Thebarton, Australia) (Akimoto et al., 2019).

CN(C)CCC[C@@]1(c2ccc(F)cc2)OCc2cc(C#N)ccc21 [Escitalopram, escitalopram]
QTc time before or after psilocybin administration (healthy subjects [1]): did not alter | effect on psilocybin-induced elevations in peak systolic blood pressure (healthy subjects [2]; escitalopram 14 days pretreatment vs placebo, P<0.001): reduced | effect on psilocybin-induced elevations in rate pressure product (healthy subjects [2]; escitalopram 14 days pretreatment vs placebo, P=0.001): reduced | effect on psilocybin-induced pupil dilation (healthy subjects [2]; escitalopram 14 days pretreatment vs placebo, P=0.002): reduced | effect on psilocybin-induced elevations in peak diastolic blood pressure (healthy subjects [2]; escitalopram 14 days pretreatment vs placebo, P=0.017): reduced | effect on psilocybin-induced cardio-stimulant effects (healthy subjects [2]; escitalopram pretreatment compared to psilocybin alone (summary)): reduced | effect on adverse autonomic effects of psilocybin (healthy subjects [2]; escitalopram pretreatment compared with placebo pretreatment (summary)): significantly reduced | inhibition of 2D6 function (2D6): slightly inhibits | effect on psilocybin-induced nadir effects in the MEQ43 (healthy subjects [3]): significantly reduced | effect on the psilocybin-induced moderate increase in BDNF (BDNF): did not significantly alter
